From patent US12582657B2, “Combination therapy including a KRAS G12C inhibitor and one or more additional pharmaceutically active agents for the treatment of cancers” (Amgen Inc., priority 2018, dated 2026)

Assays:
Experiment in all cases: Cell viability assay (CellTiter-Glo, adherent)
Assay type in all cases: cell-based
[1] = system: A549 cells; settings: Homo sapiens, A549, lung, KRAS p.G12S homozygous, 72-hour treatment
Procedure: (§1) For adherent viability assays, 0.5-1.0E+03 cells were seeded per well in 384-well plates (or 2.5-4.0E+04 cells per well in 96-well plates) and incubated at 37° C., 5% CO2, o/n. The following day, serially-diluted compound or DMSO was added to the cells, and the plates were incubated at 37° C., 5% CO2 for 72 hours. Cell viability was measured using a CellTiter-Glo® Luminescent Cell Viability Assay kit (Promega) according to the manufacturer's protocol. The luminescence signal of treated samples was normalized to DMSO control.

[2] = system: COLO-205 cells; settings: Homo sapiens, COLO-205, colon, KRAS WT BRAF p.V600E, 72-hour treatment
Procedure: as §1

[3] = system: NCI-H2030 cells; settings: Homo sapiens, NCI-H2030, lung, KRAS p.G12C homozygous, 72-hour treatment
Procedure: as §1

[4] = system: UM-UC-3 cells; settings: Homo sapiens, UMUC3, UM-UC-3, bladder, KRAS p.G12C homozygous, 72-hour treatment
Procedure: as §1

[5] = system: KM12 cells; settings: Homo sapiens, KM12, colon, KRAS WT TPM3-NTRK fusion, 72-hour treatment
Procedure: as §1

[6] = system: SW480 cells; settings: Homo sapiens, SW480, colon, KRAS p.G12V homozygous, 72-hour treatment
Procedure: as §1

[7] = system: NCI-H1355 cells; settings: Homo sapiens, NCI-H1355, lung, KRAS p.G13C heterozygous, 72-hour treatment
Procedure: as §1

[8] = system: NCI-H1792 cells; settings: Homo sapiens, NCI-H1792, lung, KRAS p.G12C heterozygous, 72-hour treatment
Procedure: as §1

## C=CC(=O)N1CCN(c2nc(=O)n(-c3c(C)ccnc3C(C)C)c3nc(-c4c(O)cccc4F)c(F)cc23)[C@@H](C)C1 (atropisomer, axis not shown) [AMG 510, 6-fluoro-7-(2-fluoro-6-hydroxyphenyl)-1-(4-methyl-2-(2-propanyl)-3-pyridinyl)-4-((2S)-2-methyl-4-(2-propenoyl)-1-piperazinyl)pyrido[2,3-d]pyrimidin-2(1H)-one]
[1]
  IC50: > 7500 nM
[2]
  IC50: > 7500 nM
[3]
  IC50: 6 ± 3 nM
[4]
  IC50: 5 ± 1 nM
[5]
  IC50: > 7500 nM
[6]
  IC50: > 7500 nM
[7]
  IC50: > 7500 nM
[8]
  IC50: 11 ± 8 nM
